For one assay, the target named is recombinant human GSK3α (Homo sapiens, UniProt P49840). Description: In vitro enzymatic assay for inhibition of GSK3α (Kinase-Glo Max luminescence). The assay is classed as biochemical. Conditions: 10 uM ATP, 0.1 mg/ml GSKtide, 30° C. for 40 minutes; read-out: Potency GSK-3alpha. The method, then:
(§1) Enzymatic activities using recombinant human GSK3 using an in vitro enzymatic assay for inhibition GSK3α and GSK3β.
(§2) The assay was performed using Kinase-Glo Max luminescence kinase assay kit (Promega). It measures kinase activity by quantitating the amount of ATP remaining in solution following a kinase reaction. The luminescent signal from the assay is correlated with the amount of ATP present and is inversely correlated with the amount of kinase activity. The compounds were diluted in 10% DMSO and 5 μl of the dilution was added to a 50 μl reaction so that the final concentration of DMSO is 1% in all of reactions. The enzymatic reactions were conducted at 30° C. for 40 minutes. The 50 μl reaction mixture contains 40 mM Tris, pH 7.4, 10 mM MgCl2, 0.1 mg/ml BSA, 2 mM DTT, 0.1 mg/ml GSKtide substrate, 10 uM ATP and GSK3. After the enzymatic reaction, 50 μl of Kinase-Glo Max Luminescence kinase assay solution (Promega) was added to each reaction and incubate the plate for 15 minutes at room temperature. Luminescence signal was measured using a BioTek Synergy 2 microplate reader.
(§3) Kinase activity assays were performed in duplicate at each concentration. The luminescence data were analyzed using the computer software, Graphpad Prism. The difference between luminescence intensities in the absence of Kinase (Lut) and in the presence of Kinase (Luc) was defined as 100% activity (Lut−Luc). […]

Another assay deals with recombinant human GSK3β (Homo sapiens, UniProt P49841). Kind of assay: In vitro enzymatic assay for inhibition of GSK3β (Kinase-Glo Max luminescence). The format is biochemical. Conditions: 10 uM ATP, 0.1 mg/ml GSKtide, 30° C. for 40 minutes; read-out: Potency GSK-3beta. As for the experimental part:
as §1, §2, §3

Assay [1] relates to Wnt signaling pathway, TCF/LEF reporter-HEK293 Recombinant cell lines. Kind of assay: Wnt signaling pathway activation in HEK293 cells (TCF/LEF reporter, luciferase). The format is cell-based. To be noted: Homo sapiens, incubated overnight, read-out: Potency. As for the experimental part: Assay: Wnt Signaling Pathway Activation in HEK293 Cells. Materials:
TCF/LEF reporter-HEK293 Recombinant cell lines
One-Step Luciferase Assay System
The assay was performed using TCF/LEF reporter-HEK293 Recombinant cell lines
Plate 32,000 TCF/LEF reporter-HEK293 Recombinant cells/well in a 96-well plate (volume=90 μL). The compounds were diluted in the thawing medium 1 containing 1% DMSO, and add 10 μL to each well (0.1% DMSO at final). The cells were incubated for overnight at 37° C. in 5% CO2 followed by adding 100 μL of One-Step Luciferase Assay System to each well. Plate was incubated for 30 min at room temperature in a darkroom.
Luminescence signal was measured using a BioTek Synergy 2 microplate reader.
Wnt signaling pathway activation assays were performed in triplicates at each concentration. The luminescence data were analyzed using the computer software, Graphpad Prism. The luminescence intensity in the absence of Compounds (Luc) was defined the minimum activity and the signal in the presence of the highest concentration of the Compound was defined as the maximum activity. Signal from the wells containing medium only was defined as background. […]

Another assay relates to Lgr5-positive cells. Kind of assay: Expansion of Lgr5-positive cochlear cells from Lgr5-EGFP-IRES-Cre-ER mice (flow cytometry for Lgr5-GFP). The assay is classed as cell-based, mouse. Conditions: 10 days (D10) in culture; for Potency: Lgr5-positive cell expansion; for % of Cells: percentage of GFP-positive (Lgr5-GFP) cells. The method, then: Lgr5-EGFP-IRES-Cre-ER mice (Barker et al., 2007) (http://jaxmice.jax.org/strain/008875.html) are used to analyze the effects of small molecules on cochlear stem cell expansion.
Isolation of stem cells from the inner ear: All animal studies are conducted under an approved institutional protocol according to National Institutes of Health guidelines. For experiments with neonatal mice (postnatal days 1-3), the cochleae are dissected in HBSS and the organ of Corti are separated from the stria vascularis and the modiolus. The organs of Corti are then treated with Cell Recovery Solution (Corning) for 1 h to separate cochlear epithelium from the underlying mesenchyme. Epithelia are then collected and treated with TrypLE (Life Technologies) for 15-20 minutes at 37° C. Single cells obtained by mechanical trituration are filtered (40 μm) and suspended in Matrigel (Corning) for 3D culture.
Cells are cultured in a 1:1 mixture of DMEM and F12, supplemented with Glutamax (GIBCO), N2, B27 (Invitrogen), EGF (50 ng/ml; Chemicon), bFGF (50 ng/ml; Chemicon), IGF1 (50 ng/ml; Chemicon) and the composition provided herein. Media are changed every other day.
Lgr5-positive cells are quantified after 10 days (D10) in culture in multiple conditions. Cell colonies are dissociated into single cells using TrypLE (Gibco). The cells are then stained with propidium iodide (PI) and are analyzed using a flow cytometer for Lgr5-GFP expression. The number of GFP-positive cells and the percentage of GFP-positive cells are quantified.
Atoh1-nGFP-positive cells are quantified at day 0 (D0) and day 10 (D10) of differentiation treatment to determine the number of hair cells that have differentiated. Cell colonies are incubated in Cell Recovery Solution to release the colonies from Matrigel and dissociated into single cells using TrypLE. The total number and percentage of GFP-positive cells are quantified using a flow cytometer for multiple culture conditions. ANOVA is used to compare means across conditions, and the two-tailed Student's T-test is used to compare each condition to the treatment with the highest yield.

A value given as a limit tells only on which side of the number the result lay.

Chain of recombinant human GSK3β (P49841 whole entry): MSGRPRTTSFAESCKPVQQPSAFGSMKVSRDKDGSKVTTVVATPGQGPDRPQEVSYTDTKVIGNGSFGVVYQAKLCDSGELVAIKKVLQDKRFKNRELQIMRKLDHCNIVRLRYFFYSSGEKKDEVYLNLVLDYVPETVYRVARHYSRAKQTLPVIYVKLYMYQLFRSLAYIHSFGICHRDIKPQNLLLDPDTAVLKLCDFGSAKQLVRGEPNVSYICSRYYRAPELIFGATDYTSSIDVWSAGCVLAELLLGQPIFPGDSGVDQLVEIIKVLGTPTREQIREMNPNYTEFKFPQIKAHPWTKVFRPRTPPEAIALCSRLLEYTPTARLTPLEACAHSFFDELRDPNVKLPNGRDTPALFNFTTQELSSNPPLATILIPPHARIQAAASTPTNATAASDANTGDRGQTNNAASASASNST
Chain of recombinant human GSK3α (P49840 whole entry): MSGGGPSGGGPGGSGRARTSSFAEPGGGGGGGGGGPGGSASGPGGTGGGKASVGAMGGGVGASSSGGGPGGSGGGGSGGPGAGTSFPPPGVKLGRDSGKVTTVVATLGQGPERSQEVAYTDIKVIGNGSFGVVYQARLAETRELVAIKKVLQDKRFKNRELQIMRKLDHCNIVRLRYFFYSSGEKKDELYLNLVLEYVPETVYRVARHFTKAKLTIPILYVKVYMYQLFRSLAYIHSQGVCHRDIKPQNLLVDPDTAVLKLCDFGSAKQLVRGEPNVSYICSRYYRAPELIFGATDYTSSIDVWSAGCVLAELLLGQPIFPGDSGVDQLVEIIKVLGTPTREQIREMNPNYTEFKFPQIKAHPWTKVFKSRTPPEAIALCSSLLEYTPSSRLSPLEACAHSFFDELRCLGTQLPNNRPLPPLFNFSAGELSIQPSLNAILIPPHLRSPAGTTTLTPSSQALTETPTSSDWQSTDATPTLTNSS

Consider `O=C1NCC(c2cn3c4c(cc(F)cc24)CN(C(=O)N2CCCCC2)CC3)=C1c1cnc2ccccn12` [Compound I-4], for which the IC50 was found to be 15.6 nM on recombinant human GSK3α and 22 nM on recombinant human GSK3β. Moreover, the EC50 in assay [1] came out at 60 nM. The same molecule showed a Potency in the assay on Lgr5-positive cells of 333.3 nM. Moreover, in the assay on Lgr5-positive cells, the “% of Cells” value is reported as 8.3%.

In the case of `O=C1NCC(c2cnc3ccccn23)=C1c1cn2c3c(cc(F)cc13)CN(C(=O)N1CCCCC1)CC2` [Compound I-49], on recombinant human GSK3α, the IC50 came to 8.2 nM. The IC50 on recombinant human GSK3β came to 8.3 nM. Also, in assay [1], the EC50 was under 10 nM. In addition, in the assay on Lgr5-positive cells, the Potency turned out to be 333.3 nM and the “% of Cells” value was found to be 5.5%.

The values above are taken from patent US10383881B2, “1,5-dihydro-2H-pyrrol-2-one compounds and methods of using same” (Frequency Therapeutics, Inc., priority 2016, dated 2019).
